According to patent US10280163B2 (BeiGene, Ltd., priority 2015, dated 2019):
Read-outs that look alike come from different tables or passages of the source.

Columns and labels:
[1] = molecular target: T1, Recombinant IDO1 (Homo sapiens, UniProt P14902); assay: IDO1 enzymatic assay; format: biochemical
T1 construct: His tag (N); made in house; host or cells: E. coli
Method in brief: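 N-terminally His-tagged enzyme from E. coli (50 nM) was incubated with compound, 1.3 mM D-tryptophan, 5 mM ascorbate, 6.25 μM methylene blue and 0.4 mg/mL catalase in 50 mM potassium phosphate pH 7.5, 0.1% BSA for 1.5 h at 24° C. N′-formylkynurenine formation was followed at 321 nm for 1 h; IC50 from rate slopes.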

[2] = molecular target: T2, cellular IDO1 in HeLa cells (Homo sapiens, UniProt P14902); assay: HeLa cell-based IDO1 Kyn (kynurenine) production assay; conditions: IFN-γ 100 ng/mL, 48 hours
T2 construct: endogenous in cells; host or cells: HeLa cells (American Type Tissue Culture Collection), induced with human recombinant IFN-γ
T2 sequence (P14902 whole entry): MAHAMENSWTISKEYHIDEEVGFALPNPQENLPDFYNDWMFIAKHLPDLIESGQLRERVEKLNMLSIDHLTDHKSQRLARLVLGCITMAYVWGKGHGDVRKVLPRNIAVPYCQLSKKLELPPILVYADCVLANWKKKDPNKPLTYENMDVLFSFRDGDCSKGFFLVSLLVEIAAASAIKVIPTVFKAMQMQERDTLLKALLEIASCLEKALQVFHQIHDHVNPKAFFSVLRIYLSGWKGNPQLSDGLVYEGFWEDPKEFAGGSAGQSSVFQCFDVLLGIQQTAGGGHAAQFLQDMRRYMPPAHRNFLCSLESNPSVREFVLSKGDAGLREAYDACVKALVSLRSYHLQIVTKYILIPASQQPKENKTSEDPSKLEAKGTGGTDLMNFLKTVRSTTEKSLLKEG
Method in brief: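 IFN-γ-induced HeLa cells (100 ng/mL) in phenol red-free DMEM with 0.4 mM L-Trp, compounds added together with IFN-γ, 48 h at 37 °C. Supernatant Kyn read at 480 nm after TCA precipitation and 4-(dimethylamino)benzaldehyde reaction. IC50 from four-parameter logistic fit.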

[3] = molecular target: T3, Recombinant TDO (Homo sapiens, UniProt P48775); assay: TDO enzymatic assay; format: biochemical
T3 construct: His tag (C); made in house; host or cells: E. coli
T3 sequence (P48775 whole entry): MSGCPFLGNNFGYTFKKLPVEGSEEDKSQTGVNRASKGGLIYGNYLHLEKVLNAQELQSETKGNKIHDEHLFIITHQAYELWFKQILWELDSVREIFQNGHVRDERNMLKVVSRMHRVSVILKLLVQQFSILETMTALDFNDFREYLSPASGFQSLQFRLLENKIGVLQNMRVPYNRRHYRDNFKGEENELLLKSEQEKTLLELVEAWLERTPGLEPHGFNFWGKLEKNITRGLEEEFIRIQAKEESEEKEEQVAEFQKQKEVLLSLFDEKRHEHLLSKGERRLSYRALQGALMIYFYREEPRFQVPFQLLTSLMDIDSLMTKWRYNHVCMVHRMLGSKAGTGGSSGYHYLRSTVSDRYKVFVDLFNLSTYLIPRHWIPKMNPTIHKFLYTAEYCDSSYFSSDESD
Protocol: Recombinant TDO was overexpressed and purified from E. coli cells with a C-terminal His tag. TDO enzymatic assay was performed using the same methodology as IDO1 enzymatic assay except that 100 nM TDO and 0.5 mM L-tryptophan (Km concentration) were used in the TDO assay.

[4] = Table 1, 5-substituted imidazo[1,5-a]pyridines, 50 nM IDO1, 1.3 mM D-tryptophan, read-out: Enzyme IC50 (nM) IDO1
[5] = Table 1, 5-substituted imidazo[1,5-a]pyridines
[6] = Table 1, 5-substituted imidazo[1,5-a]pyridines, 100 nM TDO, 0.5 mM L-tryptophan, read-out: Enzyme IC50 (nM) TDO
[7] = Table 2, 8-substituted imidazo[1,5-a]pyridines, 50 nM IDO1, 1.3 mM D-tryptophan, read-out: Enzyme IC50 (nM) IDO1
[8] = Table 2, 8-substituted imidazo[1,5-a]pyridines
[9] = Table 2, 8-substituted imidazo[1,5-a]pyridines, 100 nM TDO, 0.5 mM L-tryptophan, read-out: Enzyme IC50 (nM) TDO

T1 sequence (P14902 whole entry): as the sequence (P14902 whole entry) above

`OC(c1c(Cl)c(Cl)c(Cl)c2cncn12)C1CCCCC1` (centres unmarked) [Example A154, cyclohexyl(6,7,8-trichloroimidazo[1,5-a]pyridin-5-yl)methanol] was tested, and the IC50 [1, 4] was 430 nM, the EC50 [2, 5] was 657 nM and the IC50 [3, 6] was 8400 nM.

Compound `OC(c1c(I)ccn2cncc12)C1CCCCC1` (centres unmarked) [Example B103, cyclohexyl(7-iodoimidazo[1,5-a]pyridin-8-yl)methanol] has an IC50 [1, 7] of 69 nM, an EC50 [2, 8] of 575 nM and an IC50 [3, 9] of 8000 nM.

With `OC(c1c(C2CC2)ccc2cncn12)C1CCCCC1` (single isomer, unassigned) [Example A126b] the IC50 [1, 4] was 6800 nM, the EC50 [2, 5] was over 10000 nM and the IC50 [3, 6] was 74000 nM.

With `FC(c1cc(Cl)cc2cncn12)C1CCC(F)(F)CC1` (centres unmarked) [Example A020, 7-chloro-5-((4,4-difluorocyclohexyl)fluoromethyl)imidazo[1,5-a]pyridine] the IC50 [1, 4] was 8900 nM, the EC50 [2, 5] was over 10000 nM and the IC50 [3, 6] was 350 nM.

For `c1cc(CC2CCCCC2)n2cncc2c1` [Example A015, 5-(cyclohexylmethyl)imidazo[1,5-a]pyridine], the IC50 [1, 4] was 540 nM, the EC50 [2, 5] was over 10000 nM and the IC50 [3, 6] was 260 nM.

`Cc1noc(C)c1-c1ccc2cncn2c1C(O)C1CCCCC1` (centres unmarked) [Example A140, cyclohexyl(6-(3,5-dimethylisoxazol-4-yl)imidazo[1,5-a]pyridin-5-yl)methanol] showed an IC50 [1, 4] of 10000 nM, an EC50 [2, 5] of 7810 nM and an IC50 [3, 6] of 17000 nM.

Compound `Cc1ccc2cncn2c1C(O)C1CCCCC1` (centres unmarked) [Example A122, cyclohexyl(6-methylimidazo[1,5-a]pyridin-5-yl)methanol] has an IC50 [1, 4] of 28 nM, an EC50 [2, 5] of 268 nM and an IC50 [3, 6] of 430 nM.

`OC(c1c(Cl)c(Br)cc2cncn12)C1CCCCC1` (centres unmarked) [Example A148, (7-bromo-6-chloroimidazo[1,5-a]pyridin-5-yl)(cyclohexyl)methanol] showed an IC50 [1, 4] of 39 nM, an EC50 [2, 5] of 1490 nM and an IC50 [3, 6] of 420 nM.

In the case of `OC(c1c(C(F)(F)F)ccc2cncn12)C1CC1` (centres unmarked) [Example A132, cyclopropyl(6-(trifluoromethyl)imidazo[1,5-a]pyridin-5-yl)methanol], the IC50 [1, 4] is reported as 210 nM and the IC50 [3, 6] is reported as 75000 nM.

`OC(CC1CCCCC1)c1c(I)ccc2cncn12` (single isomer, unassigned) [Example A124b] showed an IC50 [1, 4] of 1100 nM, an EC50 [2, 5] of over 10000 nM and an IC50 [3, 6] of 95000 nM.

Work on `OC(c1c(Cl)c(Br)cc2cncn12)C1CCCC1` (centres unmarked) [Example A149, (7-bromo-6-chloroimidazo[1,5-a]pyridin-5-yl)(cyclopentyl)methanol] yielded an IC50 [1, 4] of 35 nM, an EC50 [2, 5] of 2060 nM and an IC50 [3, 6] of 160 nM.

Work on `OC(CCC1CCCCC1)c1cccn2cncc12` (centres unmarked) [Example B008, 3-cyclohexyl-1-(imidazo[1,5-a]pyridin-8-yl)propan-1-ol] yielded an IC50 [1, 7] of 620 nM, an EC50 [2, 8] of over 10000 nM and an IC50 [3, 9] of 17000 nM.

With `OC(CC1CCCCC1)c1c(Cl)ccc2cncn12` (single isomer, unassigned) [Example A117b] the IC50 [1, 4] was 1600 nM, the EC50 [2, 5] was over 10000 nM and the IC50 [3, 6] was 35000 nM.

Work on `OC(c1c(Br)ccc2cncn12)C1CCCCC1` (single isomer, unassigned) [Example A118a] yielded an IC50 [1, 4] of 14 nM, an EC50 [2, 5] of 346 nM and an IC50 [3, 6] of 1700 nM.

In the case of `OC(CC1CCCCC1)c1c(C(F)(F)F)ccc2cncn12` (centres unmarked) [Example A127, 2-cyclohexyl-1-(6-(trifluoromethyl)imidazo[1,5-a]pyridine-5-yl)ethan-1-ol], the IC50 [1, 4] is reported as 44 nM, the EC50 [2, 5] is reported as 165 nM and the IC50 [3, 6] is reported as 3500 nM.

Work on `OC(c1c(C2CC2)ccn2cncc12)C1CCCCC1` (single isomer, unassigned) [Example B107a] yielded an IC50 [1, 7] of 47 nM, an EC50 [2, 8] of 136 nM and an IC50 [3, 9] of 1300 nM.

With `OC(c1c(I)ccc2cncn12)C1CCCCC1` (single isomer, unassigned) [Example A125a] the IC50 [1, 4] was 15 nM, the EC50 [2, 5] was 138 nM and the IC50 [3, 6] was 4500 nM.

`OC(CC1CCCCC1)c1c(C2CC2)ccn2cncc12` (centres unmarked) [Example B110] was tested, and the IC50 [1, 7] was 53 nM, the EC50 [2, 8] was 259 nM and the IC50 [3, 9] was 1000 nM.

`OC(CC1CCCCC1)c1c(Cl)ccc2cncn12` (centres unmarked) [Example A117, 1-(6-chloroimidazo[1,5-a]pyridin-5-yl)-2-cyclohexylethan-1-ol] gave an IC50 ([1]; selectivity examples, read-out: enzymatic IC50 value to IDO1) of 28 nM, an EC50 [2, 5] of 143 nM and an IC50 ([3]; selectivity examples, read-out: enzymatic IC50 value to TDO) of 9700 nM.

In the case of `OC(c1cc(Cl)cn2cncc12)C1CCCCC1` (centres unmarked) [Example B014, (6-Chloroimidazo[1,5-a]pyridin-8-yl)(cyclohexyl)methanol], the IC50 [1, 7] is reported as 180 nM, the EC50 [2, 8] is reported as over 10000 nM and the IC50 [3, 9] is reported as 100 nM.

In the case of `OC1CCC(C(O)c2c(C3CC3)ccc3cncn23)CC1` (centres unmarked) [Example A142, 4-((6-cyclopropylimidazo[1,5-a]pyridin-5-yl)(hydroxy)methyl)cyclohexan-1-ol], the IC50 [1, 4] is reported as 130 nM, the EC50 [2, 5] is reported as 574 nM and the IC50 [3, 6] is reported as 64000 nM.

Work on `OC(CC1CCCCC1)c1cc(C(F)(F)F)cc2cncn12` (single isomer, unassigned) [Example A114b] yielded an IC50 [1, 4] of 74 nM, an EC50 [2, 5] of 5430 nM and an IC50 [3, 6] of 170 nM.

Compound `OC(c1c(C(F)(F)F)ccc2cncn12)C1CCCC1` (centres unmarked) [Example A133, cyclopentyl(6-(trifluoromethyl)imidazo[1,5-a]pyridin-5-yl)methanol] has an IC50 [1, 4] of 58 nM, an EC50 [2, 5] of 2040 nM and an IC50 [3, 6] of 36000 nM.

`OC(c1c(Cl)c(Cl)cc2cncn12)C1CCCCC1` (single isomer, unassigned) [Example A143a] showed an IC50 [1, 4] of 20 nM, an EC50 [2, 5] of 274 nM and an IC50 [3, 6] of 690 nM.

Work on `OC(c1c(Cl)c(Br)cc2cncn12)C1CC1` (centres unmarked) [Example A150, (7-bromo-6-chloroimidazo[1,5-a]pyridin-5-yl)(cyclooropyl)methanol] yielded an IC50 [1, 4] of 130 nM and an IC50 [3, 6] of 200 nM.

For `OC(c1c(I)ccc2cncn12)C1CC1` (centres unmarked) [Example A134, cyclopropyl(6-iodoimidazo[1,5-a]pyridin-5-yl)methanol], the IC50 [1, 4] was 59 nM, the EC50 [2, 5] was 8610 nM and the IC50 [3, 6] was 26000 nM.

`OC(c1cc(Cl)cc2cncn12)C1CCCC1` (centres unmarked) [Example A103, (7-chloroimidazo[1,5-a]pyridin-5-yl)(cyclopentyl)methanol] gave an IC50 [1, 4] of 22 nM, an EC50 [2, 5] of 1510 nM and an IC50 [3, 6] of 22 nM.

In the case of `OC(CC1CCCCC1)c1cc(Cl)cc2cncn12` (single isomer, unassigned) [Example A102b], the IC50 [1, 4] is reported as 510 nM, the EC50 [2, 5] is reported as over 10000 nM and the IC50 [3, 6] is reported as 1200 nM.

Compound `OC(c1cccn2cncc12)C1CCCCCC1` (centres unmarked) [Example B005, Cycloheptyl(imidazo[1,5-a]pyridin-8-yl)methanol] has an IC50 [1, 7] of 990 nM and an IC50 [3, 9] of 740 nM.

Compound `OC(CC1CCCCC1)c1c(C2CC2)ccc2cncn12` (single isomer, unassigned) [Example A139b] has an IC50 [1, 4] of 4500 nM and an IC50 [3, 6] of 13000 nM.

Compound `OC(c1c(C2CC2)ccc2cncn12)C1CCCCC1` (single isomer, unassigned) [Example A129b] has an IC50 [1, 4] of 21000 nM, an EC50 [2, 5] of over 10000 nM and an IC50 [3, 6] of 37000 nM.

`OC(c1cccc2cncn12)C1CCCCCC1` (centres unmarked) [Example A009, Cycloheptyl(imidazo[1,5-a]pyridin-5-yl)methanol] was tested, and the IC50 [1, 4] was 110 nM, the EC50 [2, 5] was over 10000 nM and the IC50 [3, 6] was 260 nM.

`OC(c1cc(C(F)(F)F)cc2cncn12)C1CCCCC1` (single isomer, unassigned) [Example A109a] gave an IC50 [1, 4] of 15 nM, an EC50 [2, 5] of 2100 nM and an IC50 [3, 6] of 97 nM.

Work on `OC(c1cc(Cl)cc2cncn12)C1CCCCC1` (centres unmarked) [Example A101, (7-chloroimidazo[1,5-a]pyridin-5-yl)(cyclohexyl)methanol] yielded an IC50 [1, 4] of 29 nM, an EC50 [2, 5] of 1360 nM and an IC50 [3, 6] of 68 nM.

Compound `OC(CC1CCCCC1)c1cc(C(F)(F)F)cc2cncn12` (centres unmarked) [Example A114, 2-cyclohexyl-1-(7-(trifluoromethyl)imidazo[1,5-a]pyridin-5-yl)ethan-1-ol] has an IC50 [1, 4] of 260 nM and an IC50 [3, 6] of 420 nM.

`OC(c1cccn2cncc12)C1CCCC1` (centres unmarked) [Example B002, Cyclopentyl(imidazo[1,5-a]pyridin-8-yl)methanol] gave an IC50 [1, 7] of 2000 nM and an IC50 [3, 9] of 810 nM.

Work on `OC(c1ccccc1)c1cccn2cncc12` (centres unmarked) [Example B004, Imidazo[1,5-a]pyridin-8-yl(phenyl)methanol] yielded an IC50 [1, 7] of 17000 nM and an IC50 [3, 9] of 3900 nM.

In the case of `O[C@@H](c1cc(Cl)cc2cncn12)C1CCCCC1` [Example A101b, (R)-(7-chloroimidazo[1,5-a]pyridin-5-yl)(cyclohexyl)methanol], the IC50 [1, 4] is reported as 890 nM and the IC50 [3, 6] is reported as 230 nM.

Compound `OC(CC1CCCCC1)c1c(C2CC2)ccc2cncn12` (single isomer, unassigned) [Example A139a] has an IC50 [1, 4] of 11 nM and an IC50 [3, 6] of 1800 nM.

`OC(c1c(Cl)c(C(F)(F)F)cc2cncn12)C1CCCCC1` (centres unmarked) [Example A155, (6-chloro-7-(trifluoromethyl)imidazo[1,5-a]pyridin-5-Yl)(cyclohexyl)methanol] gave an IC50 [1, 4] of 1000 nM and an IC50 [3, 6] of 1600 nM.
